Among the data in ChEMBL document CHEMBL1127996, “Structure and synthesis of clausenaquinone-a. A novel carbazolequinone alkaloid and bioactive principle from Clausena excavata” (Bioorg Med Chem Lett, 1994) are IC50 and Inhibition values, retold here.

SMILES strings stand for the structures. Values after ≈ are worked out from the molar mass of the structure shown.

For one assay, the system named is RPMI-7951. The experiment in a line: Cytotoxicity in RPMI-7951 cell line. The conditions noted are these: Homo sapiens. The assay is classed as functional, cell-based.
A further assay concerns HCT-8. The experiment in a line: Cytotoxicity in HCT-8 cell line. The following applies: Homo sapiens. Type of assay: functional, cell-based.
Another assay has as its system TE-671. The experiment in a line: Cytotoxicity in TE671 cell line. The assay is classed as functional, cell-based. The conditions noted are these: Homo sapiens.
A further assay is filed under the species Oryctolagus cuniculus. Put plainly: Compound was tested for inhibition of platelet aggregation induced by arachidonic acid(100 uM) at a dose of 10 ug/mL in rabbit. Type of assay: functional.
A further assay relates to P388. The experiment in a line: Cytotoxicity in P-388 cell line. The conditions noted are these: Mus musculus. Type of assay: functional, cell-based.

By IC50 is commonly meant the concentration that inhibits the measured activity by half. A lower IC50 goes with greater potency in that assay. `COC1=CC(=O)c2[nH]c3cc(O)c(C)cc3c2C1=O`: the IC50 in the assay on RPMI-7951 was 0.22 µg/mL (≈ 0.855 µM); with HCT-8, 0.92 µg/mL (≈ 3.58 µM); in the assay on TE-671, 3.82 µg/mL (≈ 14.8 µM).

In general, Inhibition refers to the percentage by which the read-out fell short of the control. Read a high Inhibition as strong suppression. For the compound `COC1=CC(=O)c2[nH]c3ccc(C)c(O)c3c2C1=O`, the IC50 in the assay with RPMI-7951 is 0.33 µg/mL (≈ 1.28 µM); in the assay on HCT-8, 1.82 µg/mL (≈ 7.07 µM); in the assay on P388 it was 2.24 µg/mL (≈ 8.71 µM); in the assay with TE-671, 0.17 µg/mL (≈ 0.661 µM). The compound further had an Inhibition in the assay listed under Oryctolagus cuniculus of 100%.
